Measured values: patent US20260325533A1, “CDK INHIBITOR COMPOUNDS” (ALEKSIA THERAPEUTICS, INC., priority 2023, published 2026)
Where two headings read alike, the source gives them in different places.

What was measured:
Assay type in all cases: biochemical
CDK1/CCNB1 = CDK1/CCNB1 (Homo sapiens, UniProt P06493); assay: CDK1 homogeneous time-resolved fluorescence (HTRF) kinase assay; details: CDK1/CCNB
Summary of the method: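 HTRF assay with 0.5 nM CDK1/CCNB1, 1 mM ATP, 50 nM ULight-eIF4E-BP1 (Thr37/46) peptide; compound preincubated 20 min, reaction 60 min at 23 °C, EDTA stop, Eu-anti-phospho antibody detection. 11-point half-log titration from 10 μM, 1% DMSO; IC50 from 665 nm or 665/615 signal.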

CDK2/CCNE1 = CDK2/CCNE1 (Homo sapiens, UniProt P24941); assay: CDK2 homogeneous time-resolved fluorescence (HTRF) kinase assay; details: CDK2/CCNE
Summary of the method: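 CDK2/CCNE1 (3 nM) preincubated 20 min at 23 °C with compound, then reacted 60 min at 23 °C with 1 mM ATP and 50 nM ULight-4E-BP1 (Thr37/46) peptide. Stopped with EDTA, phospho-peptide detected by Eu-anti-phospho antibody (665 nm or 665/615 ratio). IC50 from 11-point half-log titrations typically starting at 10 μM.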

CDK4/CCND3 = CDK4/CCND3 (Homo sapiens, UniProt P11802); assay: CDK4 homogeneous time-resolved fluorescence (HTRF) kinase assay; details: CDK4/CCND
Chain of CDK4/CCND3 (P11802 whole entry): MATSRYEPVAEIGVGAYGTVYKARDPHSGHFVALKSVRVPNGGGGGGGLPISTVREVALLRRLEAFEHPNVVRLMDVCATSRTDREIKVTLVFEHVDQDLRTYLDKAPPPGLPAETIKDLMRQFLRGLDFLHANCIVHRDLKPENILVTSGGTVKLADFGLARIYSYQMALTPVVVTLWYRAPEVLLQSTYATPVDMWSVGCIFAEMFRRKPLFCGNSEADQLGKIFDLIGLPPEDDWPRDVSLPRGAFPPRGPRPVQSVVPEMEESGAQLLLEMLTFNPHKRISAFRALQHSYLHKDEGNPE
Chain of CDK4/CCND3 (P30281 whole entry partner): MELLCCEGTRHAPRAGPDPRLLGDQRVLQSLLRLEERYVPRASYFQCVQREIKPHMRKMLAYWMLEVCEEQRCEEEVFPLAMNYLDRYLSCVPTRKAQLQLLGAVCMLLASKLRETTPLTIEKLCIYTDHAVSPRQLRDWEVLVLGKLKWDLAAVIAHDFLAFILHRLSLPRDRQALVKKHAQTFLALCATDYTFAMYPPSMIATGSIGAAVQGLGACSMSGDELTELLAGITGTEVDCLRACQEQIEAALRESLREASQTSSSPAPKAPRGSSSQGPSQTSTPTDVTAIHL
Summary of the method: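 Steps: compound plus 1.5 nM CDK4/CCND3, 20 min, 23 °C; add 1 mM ATP and 50 nM ULight-4E-BP1 (Thr37/46) peptide, 60 min; stop with 10 mM EDTA; add 2 nM Eu anti-phospho antibody, 60 min; read 665 nm. IC50 from 11-point half-log series starting 10 μM.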

CDK6/CCND1 = CDK6/CCND1 (Homo sapiens, UniProt Q00534); assay: CDK6 homogeneous time-resolved fluorescence (HTRF) kinase assay; details: CDK6/CCND, 1 mM ATP
Chain of CDK6/CCND1 (Q00534 whole entry): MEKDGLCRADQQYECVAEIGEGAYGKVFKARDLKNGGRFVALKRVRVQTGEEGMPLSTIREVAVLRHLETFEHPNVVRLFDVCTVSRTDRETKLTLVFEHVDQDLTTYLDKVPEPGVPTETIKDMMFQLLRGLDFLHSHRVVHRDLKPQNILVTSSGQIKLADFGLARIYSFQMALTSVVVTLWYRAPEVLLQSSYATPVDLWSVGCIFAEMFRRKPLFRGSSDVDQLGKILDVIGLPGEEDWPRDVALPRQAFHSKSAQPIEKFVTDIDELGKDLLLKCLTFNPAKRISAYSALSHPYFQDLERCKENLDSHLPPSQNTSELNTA
Chain of CDK6/CCND1 (P24385 whole entry partner): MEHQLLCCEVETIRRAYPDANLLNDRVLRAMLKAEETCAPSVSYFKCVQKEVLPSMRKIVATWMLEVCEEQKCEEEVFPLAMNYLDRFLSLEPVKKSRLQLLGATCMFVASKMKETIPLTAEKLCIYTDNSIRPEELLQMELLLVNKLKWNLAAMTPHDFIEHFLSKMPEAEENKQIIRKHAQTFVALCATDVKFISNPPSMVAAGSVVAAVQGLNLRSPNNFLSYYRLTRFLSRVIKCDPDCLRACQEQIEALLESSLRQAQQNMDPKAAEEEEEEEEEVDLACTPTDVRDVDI
Summary of the method: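 Enzyme pre-incubated 20 min at 23 °C with compound, then reacted 60 min at 23 °C with 1 mM ATP and 50 nM ULight-4E-BP1 (Thr37/46) peptide; 1 nM enzyme, 1% DMSO. EDTA-stopped, Eu-anti-phospho antibody TR-FRET read (665 nm or 665/615 ratio); 11-point half-log titration from 10 μM gave IC50.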

[1] = 25-250 nM, read-out: CDK1/CCNB IC50, 25-250 nM
[2] = <25 nM, read-out: CDK2/CCNE IC50, <25 nM
[3] = 25-250 nM, read-out: CDK4/CCND IC50, 25-250 nM
[4] = 25-250 nM, read-out: CDK6/CCND IC50, 25-250 nM
[5] = >250 nM, read-out: CDK1/CCNB IC50 >250 nM
[6] = 25-250 nM, read-out: CDK2/CCNE IC50, 25-250 nM
[7] = >250 nM, read-out: CDK4/CCND IC50, >250 nM
[8] = >250 nM, read-out: CDK6/CCND IC50, >250 nM

Chain of CDK1/CCNB1 (P06493 whole entry): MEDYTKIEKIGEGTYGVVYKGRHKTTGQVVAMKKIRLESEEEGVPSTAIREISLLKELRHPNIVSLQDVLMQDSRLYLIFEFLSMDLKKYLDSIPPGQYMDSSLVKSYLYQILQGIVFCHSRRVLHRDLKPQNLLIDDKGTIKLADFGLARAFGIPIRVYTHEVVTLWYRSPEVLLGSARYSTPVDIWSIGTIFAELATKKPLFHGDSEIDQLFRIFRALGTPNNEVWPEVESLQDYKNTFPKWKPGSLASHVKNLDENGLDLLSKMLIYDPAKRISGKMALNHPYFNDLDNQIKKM
Chain of CDK1/CCNB1 (P14635 whole entry partner): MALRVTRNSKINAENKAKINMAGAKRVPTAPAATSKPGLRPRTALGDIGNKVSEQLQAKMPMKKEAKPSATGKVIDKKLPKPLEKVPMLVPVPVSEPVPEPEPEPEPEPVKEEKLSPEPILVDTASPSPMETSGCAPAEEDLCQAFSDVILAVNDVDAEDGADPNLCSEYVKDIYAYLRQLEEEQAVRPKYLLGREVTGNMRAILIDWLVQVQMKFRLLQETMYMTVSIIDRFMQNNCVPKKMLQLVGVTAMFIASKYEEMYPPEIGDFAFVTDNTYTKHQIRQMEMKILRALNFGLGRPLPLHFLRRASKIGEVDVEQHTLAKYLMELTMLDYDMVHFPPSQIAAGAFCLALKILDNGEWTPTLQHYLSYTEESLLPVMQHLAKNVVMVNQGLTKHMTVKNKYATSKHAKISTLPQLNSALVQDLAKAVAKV

| Compound | IC50 (CDK1/CCNB1; [1]) [nM] | IC50 (CDK2/CCNE1; [2]) [nM] | IC50 (CDK4/CCND3; [3]) [nM] | IC50 (CDK6/CCND1; [4]) [nM] | IC50 (CDK1/CCNB1; [5]) [nM] | IC50 (CDK2/CCNE1; [6]) [nM] | IC50 (CDK4/CCND3; [7]) [nM] | IC50 (CDK6/CCND1; [8]) [nM] | IC50 (CDK2/CCNE1; >250 nM, read-out: CDK2/CCNE IC50, >250 nM) [nM] |
| --- | --- | --- | --- | --- | --- | --- | --- | --- | --- |
| Cc1c(-c2nccc3cnc(Nc4ccc(-n5ccnc5)cc4)cc23)ccc2c1cnn2CC(C)(C)O [Ex 928, 1-(5-(7-((4-(1H-imidazol-1-yl)phenyl)amino)-2,6-naphthyridin-1-yl)-4-methyl-1H-indazol-1-yl)-2-methylpropan-2-ol] | 25 to 250 | < 25 | 25 to 250 | 25 to 250 |  |  |  |  |  |
| Cc1c(-c2nccc3cnc(Nc4cccc(C(=O)Nc5ccccc5)c4)cc23)ccc2c1cnn2CC(C)(C)O [Ex 929, 3-((5-(1-(2-hydroxy-2-methylpropyl)-4-methyl-1H-indazol-5-yl)-2,6-naphthyridin-3-yl)amino)-N-phenylbenzamide] |  |  |  |  | > 250 | 25 to 250 | > 250 | > 250 |  |
| Cc1c(-c2nccc3cnc(Nc4ccc(S(C)(=O)=O)c(N5CCN(C)CC5)c4)cc23)ccc2c1cnn2CC(C)(C)O [Ex 931, 2-methyl-1-(4-methyl-5-(7-((3-(4-methylpiperazin-1-yl)-4-(methylsulfonyl)phenyl)amino)-2,6-naphthyridin-1-yl)-1H-indazol-1-yl)propan-2-ol] |  |  |  |  | > 250 | 25 to 250 | > 250 | > 250 |  |
| Cc1c(-c2nccc3cnc(Nc4ccc(=O)n(C)n4)cc23)ccc2c1cnn2CC(C)(C)O [Ex 932, 6-((5-(1-(2-hydroxy-2-methylpropyl)-4-methyl-1H-indazol-5-yl)-2,6-naphthyridin-3-yl)amino)-2-methylpyridazin-3(2H)-one] |  | < 25 | 25 to 250 |  | > 250 |  |  | > 250 |  |
| CN1CCN(S(=O)(=O)c2ccc(Nc3cc4c(C#Cc5ccc(C#N)cc5)nccc4cn3)cc2)CC1 [Ex 933, 4-((7-((4-((4-methylpiperazin-1-yl)sulfonyl)phenyl)amino)-2,6-naphthyridin-1-yl)ethynyl)benzonitrile] |  |  |  |  | > 250 |  | > 250 | > 250 | > 250 |
| N#Cc1ccc(C#Cc2nccc3cnc(Nc4ccc(S(=O)(=O)N5CCOCC5)cc4)cc23)cc1 [Ex 934, 4-((7-((4-(morpholinosulfonyl)phenyl)amino)-2,6-naphthyridin-1-yl)ethynyl)benzonitrile] |  |  |  |  | > 250 | 25 to 250 | > 250 | > 250 |  |
| N#Cc1ccc(C#Cc2nccc3cnc(Nc4ccc(S(=O)(=O)Nc5ccccn5)cc4)cc23)cc1 [Ex 935, 4-((5-((4-cyanophenyl)ethynyl)-2,6-naphthyridin-3-yl)amino)-N-(pyridin-2-yl)benzenesulfonamide] |  |  |  |  | > 250 | 25 to 250 | > 250 | > 250 |  |
| Cc1cc(C)nc(NS(=O)(=O)c2ccc(Nc3cc4c(C#Cc5ccc(C#N)cc5)nccc4cn3)cc2)n1 [Ex 936, 4-((5-((4-cyanophenyl)ethynyl)-2,6-naphthyridin-3-yl)amino)-N-(4,6-dimethylpyrimidin-2-yl)benzenesulfonamide] |  | < 25 |  |  | > 250 |  | > 250 | > 250 |  |
| Cc1c(-c2nccc3cnc(Nc4ccc(C(=O)Nc5ccccc5)cc4)cc23)ccc2c1cnn2CC(C)(C)O [Ex 937, 4-((5-(1-(2-hydroxy-2-methylpropyl)-4-methyl-1H-indazol-5-yl)-2,6-naphthyridin-3-yl)amino)-N-phenylbenzamide] |  | < 25 |  |  | > 250 |  | > 250 | > 250 |  |
| Cc1c(-c2nccc3cnc(Nc4ccc(NS(C)(=O)=O)cc4)cc23)ccc2c1cnn2CC(C)(C)O [Ex 938, N-(4-((5-(1-(2-hydroxy-2-methylpropyl)-4-methyl-1H-indazol-5-yl)-2,6-naphthyridin-3-yl)amino)phenyl)methanesulfonamide] | 25 to 250 | < 25 | 25 to 250 | 25 to 250 |  |  |  |  |  |
| Cc1c(-c2nccc3cnc(Nc4ccnc(OCc5ccccc5)c4)cc23)ccc2c1cnn2CC(C)(C)O [Ex 939, 1-(5-(7-((2-(benzyloxy)pyridin-4-yl)amino)-2,6-naphthyridin-1-yl)-4-methyl-1H-indazol-1-yl)-2-methylpropan-2-ol] |  |  |  |  | > 250 | 25 to 250 | > 250 | > 250 |  |
